# According to patent US20260053800A1 (Veradermics, Incorporated, priority 2024, published 2026):
# Legend:
# [1] = cited from earlier work
# [2] = cited from earlier work; remark: listed apart in the source
# [3] = test system: human lymphocytes; conditions: cited from earlier work
# [4] = Case studies, oral minoxidil in male patients with androgenetic alopecia (blood pressure, heart rate, hair growth); conditions: person
# [5] = hypertensive patients; intravenous infusion; cited from earlier work
# [6] = test system: rats; conditions: two-year study, oral administration; cited from earlier work
# [7] = test system: rat hepatocyte; conditions: cited from earlier work
# [8] = test system: mouse bone marrow; conditions: in vivo; cited from earlier work
# [9] = test system: rat bone marrow; conditions: in vivo; cited from earlier work
# [10] = test system: mice; conditions: dietary up to 2 years, cited from earlier work
# [11] = test system: Chinese hamster cells; conditions: long exposure times; cited from earlier work
smiles,measurement,setting,value
Nc1cc(N2CCCCC2)nc(N)[n+]1[O-] [minoxidil],"temporary decrease in hematocrit, hemoglobin, and erythrocyte count","[1]; chronic therapy for severe hypertension, initially",approximately 7%
same,patients exhibiting ECG alterations of T waves,[1]; soon after starting therapy,approximately 60%
same,effect on blood pressure,"[2]; normotensive healthy volunteers, 2.5 mg, 5 mg, or 10 mg oral",little effect on blood pressure
same,fraction of oral dose metabolized,[2]; primarily conjugation with glucuronic acid,About 90%
same,cytogenetic assay result,[3],negative
same,adverse events,[4]; 0.625 mg four times a day,No unwanted hair growth or other adverse events were noticed
same,reductions in blood pressure,[4]; 0.625 mg four times a day,did not experience significant reductions in blood pressure
same,adverse events,[4]; 1.25 mg QID,"No unwanted hair growth or other adverse events, including any cardiac effects, were noticed"
same,steady state plasma concentration associated with significant (>5 beats per minute) changes in heart rate,[5],above 20 ng/mL
same,carcinogenicity findings,[6],no positive findings
same,mutagenicity,[7],not mutagenic
same,mutagenicity,[8],not mutagenic
same,mutagenicity,[9],not mutagenic
same,incidence of malignant lymphomas,"[10]; females, all dose levels (10, 25, and 63 mg/kg/day)",increased incidence of malignant lymphomas in females
same,incidence of hepatic nodules,"[10]; males, 63 mg/kg/day",increased incidence of hepatic nodules in males
same,cytogenetic assay result,[11],equivocal
